Measured values as given in ChEMBL document CHEMBL3885881, “DrugMatrix”.

Organism: Rattus norvegicus
Assay: DrugMatrix - Regimen: Daily Repeat
Format: toxicity, organism-based, Sprague-Dawley
Parameters: regimen Daily Repeat, gender Male, age 6-8 weeks
Settings: in vivo, po, route oral GAVAGE, vehicle 100 % WATER; for ABSOLUTE BASOPHIL / ABSOLUTE EOSINOPHIL / ABSOLUTE LYMPHOCYTE / ABSOLUTE MONOCYTE / ABSOLUTE SEGMENTED NEUTROPHIL / BASOPHIL / EOSINOPHIL / ERYTHROCYTE COUNT / HEMATOCRIT / HEMOGLOBIN / LEUKOCYTE COUNT / LYMPHOCYTE / MEAN CORPUSCULAR HEMOGLOBIN / MEAN CORPUSCULAR HEMOGLOBIN CONCENTRATION / MEAN CORPUSCULAR VOLUME / MONOCYTE / NEUTROPHIL / NUCLEATED RED BLOOD CELLS / PLATELET COUNT: tissue Blood; for ALANINE AMINOTRANSFERASE / ALBUMIN / ALKALINE PHOSPHATASE / ASPARTATE AMINOTRANSFERASE / BLOOD UREA NITROGEN / CARBON DIOXIDE / CHLORIDE / CHOLESTEROL / CREATINE PHOSPHOKINASE / CREATININE / GLUCOSE / LACTATE DEHYDROGENASE / LIPASE / PHOSPHORUS / POTASSIUM / SODIUM / TOTAL BILIRUBIN / TOTAL PROTEIN / URIC ACID: tissue Plasma
[1] = 0 mg/kg, 72 h, dose level Control, time 3 day
[2] = 0 mg/kg, 120 h, dose level Control, time 5 day
[3] = 500 mg/kg, 72 h, dose level Low, time 3 day

## NCCCCCC(=O)O [AMINOCAPROIC ACID]
[1]
  ABSOLUTE BASOPHIL: 0 CELLS/uL
  ABSOLUTE EOSINOPHIL: 40 CELLS/uL
  ABSOLUTE LYMPHOCYTE: 13599.5 CELLS/uL
  ABSOLUTE MONOCYTE: 239.33 CELLS/uL
  ABSOLUTE SEGMENTED NEUTROPHIL: 1021.17 CELLS/uL
  BASOPHIL: 0%
  EOSINOPHIL: 0.33%
  ERYTHROCYTE COUNT: 5.71 x10E6/uL
  HEMATOCRIT: 36.35%
  HEMOGLOBIN: 14.05 G/DL
  LEUKOCYTE COUNT: 14.9 x10E3/uL
  LYMPHOCYTE: 91%
  MEAN CORPUSCULAR HEMOGLOBIN: 24.62 pg
  MEAN CORPUSCULAR HEMOGLOBIN CONCENTRATION: 38.65 G/DL
  MEAN CORPUSCULAR VOLUME: 63.7 fL
  MONOCYTE: 1.5%
  NEUTROPHIL: 7.17%
  NUCLEATED RED BLOOD CELLS: 0.33 /100WBC
  PLATELET COUNT: 1225.5 x10E3/uL
  ALANINE AMINOTRANSFERASE: 48.5 u/L
  ALBUMIN: 4.18 G/DL
  ALKALINE PHOSPHATASE: 390.83 u/L
  ASPARTATE AMINOTRANSFERASE: 89 u/L
  BLOOD UREA NITROGEN: 14.83 mg/dL
  CARBON DIOXIDE: 24.83 mmol/L
  CHLORIDE: 100.83 MEQ/L
  CHOLESTEROL: 72.5 mg/dL
  CREATINE PHOSPHOKINASE: 503 u/L
  CREATININE: 0.2 mg/dL
  GLUCOSE: 163 mg/dL
  LACTATE DEHYDROGENASE: 316.83 u/L
  LIPASE: 9.83 u/L
  PHOSPHORUS: 11.57 mg/dL
  POTASSIUM: 6.16 MEQ/L
  SODIUM: 142.62 MEQ/L
  TOTAL BILIRUBIN: 0.2 mg/dL
  TOTAL PROTEIN: 5.8 G/DL
  URIC ACID: 1.65 mg/dL
[2]
  ABSOLUTE BASOPHIL: 0 CELLS/uL
  ABSOLUTE EOSINOPHIL: 21 CELLS/uL
  ABSOLUTE LYMPHOCYTE: 14288.5 CELLS/uL
  ABSOLUTE MONOCYTE: 205.33 CELLS/uL
  ABSOLUTE SEGMENTED NEUTROPHIL: 968.5 CELLS/uL
  BASOPHIL: 0%
  EOSINOPHIL: 0.17%
  ERYTHROCYTE COUNT: 5.83 x10E6/uL
  HEMATOCRIT: 36.53%
  HEMOGLOBIN: 14.4 G/DL
  LEUKOCYTE COUNT: 15.48 x10E3/uL
  LYMPHOCYTE: 92%
  MEAN CORPUSCULAR HEMOGLOBIN: 24.72 pg
  MEAN CORPUSCULAR HEMOGLOBIN CONCENTRATION: 39.43 G/DL
  MEAN CORPUSCULAR VOLUME: 62.68 fL
  MONOCYTE: 1.33%
  NEUTROPHIL: 6.5%
  NUCLEATED RED BLOOD CELLS: 0.17 /100WBC
  PLATELET COUNT: 1280.5 x10E3/uL
  ALANINE AMINOTRANSFERASE: 50 u/L
  ALBUMIN: 4.28 G/DL
  ALKALINE PHOSPHATASE: 380.17 u/L
  ASPARTATE AMINOTRANSFERASE: 82.67 u/L
  BLOOD UREA NITROGEN: 15.33 mg/dL
  CARBON DIOXIDE: 27.17 mmol/L
  CHLORIDE: 100.33 MEQ/L
  CHOLESTEROL: 60.67 mg/dL
  CREATINE PHOSPHOKINASE: 441.5 u/L
  CREATININE: 0.16 mg/dL
  GLUCOSE: 146 mg/dL
  LACTATE DEHYDROGENASE: 189.33 u/L
  LIPASE: 9.17 u/L
  PHOSPHORUS: 11.67 mg/dL
  POTASSIUM: 6.86 MEQ/L
  SODIUM: 142.33 MEQ/L
  TOTAL BILIRUBIN: 0.2 mg/dL
  TOTAL PROTEIN: 6.12 G/DL
  URIC ACID: 1.82 mg/dL
[3]
  ABSOLUTE BASOPHIL: 0 CELLS/uL
  ABSOLUTE EOSINOPHIL: 0 CELLS/uL
  ABSOLUTE LYMPHOCYTE: 14688.33 CELLS/uL
  ABSOLUTE MONOCYTE: 111.67 CELLS/uL
  ABSOLUTE SEGMENTED NEUTROPHIL: 1900 CELLS/uL
  BASOPHIL: 0%
  EOSINOPHIL: 0%
  ERYTHROCYTE COUNT: 6.18 x10E6/uL
  HEMATOCRIT: 38.13%
  HEMOGLOBIN: 14.43 G/DL
  LEUKOCYTE COUNT: 16.7 x10E3/uL
  LYMPHOCYTE: 87.67%
  MEAN CORPUSCULAR HEMOGLOBIN: 23.37 pg
  MEAN CORPUSCULAR HEMOGLOBIN CONCENTRATION: 37.87 G/DL
  MEAN CORPUSCULAR VOLUME: 61.8 fL
  MONOCYTE: 0.67%
  NEUTROPHIL: 11.67%
  NUCLEATED RED BLOOD CELLS: 0.33 /100WBC
  PLATELET COUNT: 1460 x10E3/uL
  ALANINE AMINOTRANSFERASE: 62 u/L
  ALBUMIN: 4.23 G/DL
  ALKALINE PHOSPHATASE: 425.33 u/L
  ASPARTATE AMINOTRANSFERASE: 90.33 u/L
  BLOOD UREA NITROGEN: 16.67 mg/dL
  CARBON DIOXIDE: 27.67 mmol/L
  CHLORIDE: 100.33 MEQ/L
  CHOLESTEROL: 70 mg/dL
  CREATINE PHOSPHOKINASE: 270.33 u/L
  CREATININE: 0.23 mg/dL
  GLUCOSE: 150.67 mg/dL
  LACTATE DEHYDROGENASE: 189.67 u/L
  LIPASE: 9.33 u/L
  PHOSPHORUS: 11.87 mg/dL
  POTASSIUM: 7.16 MEQ/L
  SODIUM: 144.07 MEQ/L
  TOTAL BILIRUBIN: 0.27 mg/dL
  TOTAL PROTEIN: 5.93 G/DL
  URIC ACID: 1.67 mg/dL
